Where “and” joins values, the source holds several entries; their conditions need not be identical. Equal values may be shown once. Toxic doses and inconclusive results are not listed. No stated cut-off is given here; in the data, active means T/C of 150% or more; inactive means T/C below 125%.
Test system: L1210 leukemia ip in BDF1 mice, survival T/C
Experiment: NCI In Vivo Anticancer Drug Screen. Data for tumor model L1210 Leukemia (intraperitoneal) in B6D2F1 (BDF1) mice
Conditions: endpoint: mean survival time, higher = longer survival
Method in brief: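 Mice bearing the transplanted tumor received compound or vehicle. Survival of the treated group was divided by that of the vehicle-treated control group to give the ratio.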

[1] = dose: 50.0 mg/kg/injection, schedule: Q01DX009 (ip), vehicle: saline with Tween-80
[2] = dose: 100.0 mg/kg/injection, schedule: Q01DX009 (ip), vehicle: saline with Tween-80
[3] = dose: 100.0 mg/kg/injection, schedule: Q04DX003 (ip), vehicle: Klucel (hydroxypropylcellulose) (HPC)
[4] = dose: 100.0 mg/kg/injection, schedule: Q01DX001 (ip), vehicle: saline
[5] = dose: 200.0 mg/kg/injection, schedule: Q01DX001 (ip), vehicle: saline
[6] = dose: 400.0 mg/kg/injection, schedule: Q01DX001 (ip), vehicle: saline
[7] = dose: 100.0 mg/kg/injection, schedule: Q01DX001 (ip), vehicle: other
[8] = dose: 100.0 mg/kg/injection, schedule: Q04DX003 (ip), vehicle: saline
[9] = dose: 200.0 mg/kg/injection, schedule: Q04DX003 (ip), vehicle: saline
[10] = dose: 400.0 mg/kg/injection, schedule: Q04DX003 (ip), vehicle: saline

Measured: T/C

CC(C)(O)C1C2OC(=O)C1C1(O)CC3OC34C(=O)OC2C14C (stereo not given)
inactive: dose: 12.5 mg/kg/injection, schedule: Q04DX003 (ip), vehicle: Klucel (hydroxypropylcellulose) (HPC) 100 % of control | dose: 25.0 mg/kg/injection, schedule: Q04DX003 (ip), vehicle: Klucel (hydroxypropylcellulose) (HPC) 100 % of control | dose: 50.0 mg/kg/injection, schedule: Q04DX003 (ip), vehicle: Klucel (hydroxypropylcellulose) (HPC) 100 % of control | dose: 75.0 mg/kg/injection, schedule: Q01DX001 (ip), vehicle: other 102 % of control | dose: 150.0 mg/kg/injection, schedule: Q01DX001 (ip), vehicle: other 109 % of control

O=C(CNC(=O)Nc1ccc(Cl)c(Cl)c1)N/N=C/C=C/c1ccccc1
inactive: [1] 96 % of control | [2] 96 % of control | dose: 200.0 mg/kg/injection, schedule: Q01DX009 (ip), vehicle: saline with Tween-80 93 % of control

O=C(CCCCC(=O)N/N=C/c1ccncc1)N/N=C/c1ccncc1
inactive: dose: 25.0 mg/kg/injection, schedule: Q01DX009 (ip), vehicle: saline with Tween-80 94 % of control | [1] 91 % of control | [2] 96 % of control and 89 % of control | dose: 400.0 mg/kg/injection, schedule: Q01DX009 (ip), vehicle: saline with Tween-80 91 % of control

Nc1ccc(-n2cnc3c(=O)[nH]c(N)nc32)cc1
inactive: dose: 100.0 mg/kg/injection, schedule: Q04DX003 (ip), vehicle: saline with Tween-80 98 % of control | dose: 200.0 mg/kg/injection, schedule: Q04DX003 (ip), vehicle: saline with Tween-80 98 % of control | dose: 400.0 mg/kg/injection, schedule: Q04DX003 (ip), vehicle: saline with Tween-80 92 % of control

C[C@]12CC[C@@H]3c4ccc(O)cc4CC[C@H]3[C@@H]1C[C@@H](O)[C@@H]2O
inactive: dose: 25.0 mg/kg/injection, schedule: Q01DX001 (sc), vehicle: steriod suspending solution 104 % of control | dose: 50.0 mg/kg/injection, schedule: Q01DX001 (sc), vehicle: steriod suspending solution 107 % of control | dose: 100.0 mg/kg/injection, schedule: Q01DX001 (sc), vehicle: steriod suspending solution 109 % of control | dose: 125.0 mg/kg/injection, schedule: Q04DX003 (sc), vehicle: steriod suspending solution 100 % of control | dose: 200.0 mg/kg/injection, schedule: Q01DX001 (sc), vehicle: steriod suspending solution 106 % of control | dose: 250.0 mg/kg/injection, schedule: Q04DX003 (sc), vehicle: steriod suspending solution 105 % of control | dose: 500.0 mg/kg/injection, schedule: Q04DX003 (sc), vehicle: steriod suspending solution 100 % of control

CCCc1c(C)[nH]c2ccccc12
inactive: dose: 100.0 mg/kg/injection, schedule: Q01DX009 (ip), vehicle: Klucel (hydroxypropylcellulose) (HPC) 104 % of control | [3] 105 % of control | dose: 200.0 mg/kg/injection, schedule: Q01DX009 (ip), vehicle: Klucel (hydroxypropylcellulose) (HPC) 92 % of control | dose: 200.0 mg/kg/injection, schedule: Q04DX003 (ip), vehicle: Klucel (hydroxypropylcellulose) (HPC) 104 % of control | dose: 400.0 mg/kg/injection, schedule: Q01DX009 (ip), vehicle: Klucel (hydroxypropylcellulose) (HPC) 95 % of control | dose: 400.0 mg/kg/injection, schedule: Q04DX003 (ip), vehicle: Klucel (hydroxypropylcellulose) (HPC) 105 % of control

C/C=C/P(=O)(c1ccccc1)c1ccccc1
inactive: dose: 50.0 mg/kg/injection, schedule: Q01DX001 (ip), vehicle: saline 110 % of control | [4] 110 % of control | [5] 95 % of control | [6] 104 % of control

CCSC(=O)n1ncc2cc(Cl)ccc21
inactive: [7] 105 % of control | dose: 200.0 mg/kg/injection, schedule: Q01DX001 (ip), vehicle: other 97 % of control | dose: 400.0 mg/kg/injection, schedule: Q01DX001 (ip), vehicle: other 108 % of control

Nc1nc2c(ncn2C2OC(CO)C(O)C2O)c(=O)[nH]1 (stereo not given)
inactive: dose: 5.0 mg/kg/injection, schedule: Q01DX001 (ip), vehicle: saline 102 % of control | dose: 10.0 mg/kg/injection, schedule: Q01DX001 (ip), vehicle: saline 105 % of control | dose: 20.0 mg/kg/injection, schedule: Q01DX001 (ip), vehicle: saline 97 % of control | dose: 40.0 mg/kg/injection, schedule: Q01DX001 (ip), vehicle: saline 103 % of control | dose: 80.0 mg/kg/injection, schedule: Q01DX001 (ip), vehicle: saline 108 % of control | dose: 100.0 mg/kg/injection, schedule: Q01DX001 (ip), vehicle: carboxymethylcellulose (CMC) 100 % of control | [4] 101 % of control and 105 % of control | dose: 200.0 mg/kg/injection, schedule: Q01DX001 (ip), vehicle: carboxymethylcellulose (CMC) 97 % of control | [5] 101 % of control | dose: 400.0 mg/kg/injection, schedule: Q01DX001 (ip), vehicle: carboxymethylcellulose (CMC) 97 % of control

CC1(C)N=C(N)N=C(N)N1c1ccc(OCCNC(=O)c2ccc(S(=O)(=O)F)cc2)c(Cl)c1
inactive: dose: 18.75 mg/kg/injection, schedule: Q04DX003 (ip), vehicle: saline with Tween-80 103 % of control | dose: 37.5 mg/kg/injection, schedule: Q04DX003 (ip), vehicle: saline with Tween-80 108 % of control | dose: 75.0 mg/kg/injection, schedule: Q04DX003 (ip), vehicle: saline with Tween-80 104 % of control

CS(=O)(=O)OCCN(CCOS(C)(=O)=O)c1ccc(C=Nc2cc(Br)c(O)c(Br)c2)cc1
inactive: dose: 20.0 mg/kg/injection, schedule: Q04DX003 (ip), vehicle: Klucel (hydroxypropylcellulose) (HPC) 120 % of control | dose: 40.0 mg/kg/injection, schedule: Q04DX003 (ip), vehicle: Klucel (hydroxypropylcellulose) (HPC) 104 % of control | dose: 80.0 mg/kg/injection, schedule: Q04DX003 (ip), vehicle: Klucel (hydroxypropylcellulose) (HPC) 96 % of control | [3] 113 % of control

CCCCOC(=O)c1[nH]cnc1/N=N\N(C)C
inactive: dose: 10.0 mg/kg/injection, schedule: Q01DX009 (ip), vehicle: carboxymethylcellulose (CMC) 100 % of control | dose: 18.0 mg/kg/injection, schedule: Q01DX001 (ip), vehicle: other 98 % of control | dose: 20.0 mg/kg/injection, schedule: Q01DX009 (ip), vehicle: carboxymethylcellulose (CMC) 109 % of control | dose: 28.0 mg/kg/injection, schedule: Q01DX001 (ip), vehicle: other 93 % of control | dose: 40.0 mg/kg/injection, schedule: Q01DX009 (ip), vehicle: carboxymethylcellulose (CMC) 114 % of control | dose: 42.0 mg/kg/injection, schedule: Q01DX001 (ip), vehicle: other 100 % of control | dose: 63.0 mg/kg/injection, schedule: Q01DX001 (ip), vehicle: other 102 % of control | dose: 72.0 mg/kg/injection, schedule: Q01DX015 (ip), vehicle: other 110 % of control | [7] 111 % of control | dose: 120.0 mg/kg/injection, schedule: Q01DX015 (ip), vehicle: other 101 % of control

CCC(C)Nc1ccc(NC(=S)Nc2ccc(NC(C)CC)cc2)cc1 (stereo not given)
inactive: dose: 100.0 mg/kg/injection, schedule: Q04DX002 (ip), vehicle: other 89 % of control | dose: 200.0 mg/kg/injection, schedule: Q04DX002 (ip), vehicle: other 86 % of control | dose: 400.0 mg/kg/injection, schedule: Q04DX002 (ip), vehicle: other 86 % of control

Cc1cccc(C[Si](C)C)c1
inactive: [4] 95 % of control and 104 % of control | [5] 124 % of control | [6] 93 % of control and 98 % of control

C[Se](=O)O
inactive: dose: 3.13 mg/kg/injection, schedule: Q01DX001 (ip), vehicle: saline 94 % of control | dose: 6.25 mg/kg/injection, schedule: Q01DX001 (ip), vehicle: saline 91 % of control | dose: 12.5 mg/kg/injection, schedule: Q01DX001 (ip), vehicle: saline 88 % of control

CCCCCCC(C)CCCC (stereo not given)
inactive: dose: 100.0 mg/kg/injection, schedule: Q01DX001 (ip), vehicle: saline with Tween-80 94 % of control | dose: 200.0 mg/kg/injection, schedule: Q01DX001 (ip), vehicle: saline with Tween-80 91 % of control | dose: 400.0 mg/kg/injection, schedule: Q01DX001 (ip), vehicle: saline with Tween-80 86 % of control

CCOC(=O)c1ncc(Cl)cc1NC(=O)CC(=O)Nc1cc(Cl)cnc1C(=O)OCC
inactive: [8] 97 % of control | [9] 91 % of control | [10] 92 % of control

CCOC(=O)CCc1ccc2c(c1)OCO2
inactive: [8] 103 % of control | [9] 101 % of control | [10] 95 % of control

From PubChem BioAssay AID248 (DTP/NCI, 2004)
